Measurements published in publication PMC6429055, “Synthesis, Photochemical and In Vitro Cytotoxic Evaluation of New Iodinated Aminosquaraines as Potential Sensitizers for Photodynamic Therapy” (Molecules, 2019).

What was measured:
[1] = system: HeLa (cervical carcinoma); assay: SRB cytotoxicity, dark and after irradiation (photodynamic treatment); format: cell-based; conditions: Homo sapiens, mean ± SD
Protocol: (§1) Stock solutions of the aminosquaraines 5a–e with different concentrations (0.0375 μM, 0.15 μM, 0.6 μM, 6 μM, 12 μM, 25 μM, 50 μM, 500 μM) were prepared using a solution of 3% DMSO in DMEM and kept at−20 °C. Prior to the in vitro assays diluted solutions were prepared with the same solvent to obtain solutions with final concentrations of 0.03 μM, 0.3 μM, 0.6 μM, 1.25 μM, 2.5 μM and 25 μM.
(§2) The cytotoxicity of the squaraine dyes was tested in the dark and under irradiation. For irradiation of the cells a halogen/tungsten lamp (24 V and 250 W, Osram, Carnaxide, Portugal) was used with a fluence rate of […] (measured with an ILT 1400-A radiometer equipped with a SEL033 detector, ILT, Peabody, MA, USA). The cells were irradiated continuously for 30 min. A 3% aqueous solution of K2Cr2O7 was placed between the lamp and the cells as a liquid cut off filter to remove light of wavelength shorter than ~500 nm. The temperature to which the cells were exposed was carefully monitored to guarantee cell viability.
(§3) Four human tumor cell lines were used: MCF-7 (breast adenocarcinoma), NCI-H460 (non-small cell lung carcinoma), HeLa (cervical carcinoma) and HepG2 (hepatocellular carcinoma) from DSMZ (Leibniz-Institut DSMZ-Deutsche Sammlung von Mikroorganismen und Zellkulturen GmbH, Mönchengladbach, Germany). Cells were routinely maintained as adherent cell cultures in RPMI-1640 medium containing 10% heat-inactivated FBS and 2 mM glutamine at […], in a humidified air incubator containing 5% CO2. Each cell line was plated at an appropriate density (7.5 × 10^3 cells/well for MCF-7 and NCI-H460, and 1.0 × 10^4 cells/well for HeLa and HepG2) in 96-well plates, allowed to attach for 24 h and then treated with different concentrations of each squaraine dye. Controls were set with the cells in the absence of the dyes in 3% DMSO in DMEM and in the growth medium only. After the incubation step (24 h), the cells were submitted to the photodynamic treatment for 30 min. Controls in the absence of light were performed on every test. Neither DMSO alone, nor light alone, nor the combination of both induced toxicity on the cells. Then, the growth medium was changed and the cells were incubated for further 24 h. Following this incubation period, the adherent cells were fixed by adding cold 10% TCA (100 µL) and incubated for 60 min at 4 °C. Plates were then washed with deionized water and subsequently dried. SRB solution (0.1% in 1% acetic acid, 100 µL) was then added to each plate well and incubated for 30 min at room temperature. Unbound SRB was removed by washing with 1% acetic acid. Plates were air dried, the bound SRB was solubilized with 10 mM Tris (200 µL) and the absorbance was measured at 540 nm in an ELX800 Microplate Reader (Bio-Tek Instruments Inc., Winooski, VT, USA). The results were expressed in GI50 values, which correspond to the concentration of dye that causes 50% inhibition of cell growth. All the assays were performed in duplicate. Ellipticine was used as standard.

[2] = system: HepG2 (hepatocellular carcinoma); assay: as above; format: cell-based; conditions: Homo sapiens, mean ± SD
Protocol: as §1, §2, §3

[3] = system: MCF-7 (breast adenocarcinoma); assay: as above; format: cell-based; conditions: Homo sapiens, mean ± SD
Protocol: as §1, §2, §3

[4] = system: NCI-H460 (non-small cell lung carcinoma); assay: as above; format: cell-based; conditions: Homo sapiens, mean ± SD
Protocol: as §1, §2, §3

[5] = SRB cytotoxicity in non-tumor porcine liver primary cell culture, dark and after irradiation; format: cell-based; conditions: pig, PLP2 porcine liver primary cell culture (non-tumor), non-tumor cells, mean ± SD
Protocol: as §1, §2
A cell culture was prepared from a freshly harvested porcine liver obtained from a local slaughter house, and it was designed as PLP2. Briefly, the liver tissues were rinsed in Hank’s balanced salt solution containing 100 U/mL penicillin and 100 µg/mL streptomycin and divided into 1×1 mm^3 explants to ensure that all liver cells were able to access the nutrients provided by the medium. Some of these explants were placed in 25 cm^2 tissue flasks in DMEM medium supplemented with 10% fetal bovine serum, 2 mM non-essential amino acids and 100 U/mL penicillin, […] streptomycin and incubated at 37 °C with a humidified atmosphere containing 5% CO2. The medium was changed every two days. Cultivation of the cells was continued with direct monitoring every two or three days using a phase contrast microscope. Before confluence was reached, cells were subcultured and plated in 96-well plates at a density of 1.0 × 10^4 cells/well, and cultivated in DMEM medium with 10% FBS, 100 U/mL penicillin and 100 µg/mL streptomycin [47]. The PLP2 cells were incubated with the squaraine dyes and submitted to the two independent processes—dark and irradiation—as described earlier for the human tumor cell lines. The SRB assay was performed according to the procedure previously described. The results were expressed in GI50 values. All the assays were performed in duplicate. Ellipticine was used as standard.

[6] = Fluorescence quantum yield; format: physicochemical; conditions: In CHCl3
Source text: As expected, due to the covalent link between iodine and the aminosquaraine, a strong heavy atom effect can be observed in all cases. This effect is emphasized in the case of the bis(hydroxyethyl)amino substituent group (dye 5c).

[7] = Singlet oxygen formation quantum yield (phosphorescence emission at ~1270 nm vs phenazine standard); format: physicochemical; conditions: In CHCl3, excitation 337 nm
Protocol: The evaluation of the photosensitizing efficiency of the aminosquaraine dyes was performed in chloroform, by determining the singlet oxygen formation quantum yields (ΦΔ). Phenazine was used as standard. The phosphorescence emission of singlet oxygen generated by the sensitizers at approximately 1270 nm is presented in Figure 2 and the determined quantum yields are summarized in Table 1.
These ΦΔ values were obtained by a simple comparison of the integrated areas determined for the standard and samples, using the same OD at the excitation wavelength. For each determination an average of 100 phosphorescence spectra were used. […] As previously reported, the amino group in the squaric ring enhances singlet oxygen generation efficiency when compared with the unsubstituted zwitterionic dye 3. […] This is related with the intramolecular charge transfer (ICT) mechanism which provides a non-radiative deactivation pathway, therefore decreasing the singlet oxygen formation quantum yields ([44] and references therein).
The singlet oxygen measurement set-up was assembled in our laboratory as previously described. As an excitation source we used a nitrogen laser, excitation wavelength = 337 nm. The detector was an InGaAs CCD (model i-Dus from Andor Technology Limited, Belfast, UK) working at low temperature (−60 °C) coupled to a fixed spectrograph, model Shamrock 163i, also from Andor. Phenazine (standard) was used at O.D. = 0.6 in chloroform. The ΦΔ values were obtained by comparing the total area of the emission spectra for the reference and for each dye under study in the same solvent, with the same optical density at the excitation wavelength. […].

[8] = system: HeLa, HepG2, MCF-7 and NCI-H460 cell lines; assay: SRB growth inhibition across the human tumor cell line panel, dark vs irradiation (text summaries); format: cell-based; conditions: for GI50: Homo sapiens, light or radiation study, irradiated, range over cell lines, stated jointly for 5a and 5b, read-out: GI50 upon illumination, range over all the cell lines tested; for Difference between growth inhibition percentages upon illumination and in the dark: dye 0.3 μM, range over the cell lines
Protocol: In this representative example, the growth inhibition in the dark was less than 20% in more than 75% of the assays.
as §1, §2, §3

[9] = light or radiation study, 0.5 h, Irradiated 30 min, halogen/tungsten lamp >500 nm
[10] = HepG2, light or radiation study, 0.5 h, Irradiated 30 min, halogen/tungsten lamp >500 nm
[11] = MCF7, light or radiation study, 0.5 h, Irradiated 30 min, halogen/tungsten lamp >500 nm
[12] = NCI-H460, light or radiation study, 0.5 h, Irradiated 30 min, halogen/tungsten lamp >500 nm

## CCN1C(=CC2=C(N(CCO)CCO)C(=Cc3sc4cc(I)ccc4[n+]3CC)C2=O)Sc2cc(I)ccc21.[I-] [Dye 5c, 3-Ethyl-2-{3-(3-ethyl-6-iodo-3H-benzothiazol-2-ylidenemethyl)-2-[bis(2-hydroxy-ethyl)amino]-4-oxocyclobut-2-enylidenemethyl}-6-iodobenzothiazol-3-ium iodide]
[1]; Dark
  GI50: 2000 ± 100 nM
[1]; [9]
  GI50: 310 ± 30 nM
[2]; [10]
  GI50: 260 ± 30 nM
[2]; HepG2, Dark
  GI50: 23000 ± 2000 nM
[3]; [11]
  GI50: 420 ± 60 nM
[3]; MCF7, Dark
  GI50: > 25000 nM
[4]; [12]
  GI50: 980 ± 40 nM
[4]; NCI-H460, Dark
  GI50: 23000 ± 2000 nM
[5]; Dark
  GI50: 22000 ± 900 nM
[5]; Irradiated 30 min
  GI50: 440 ± 10 nM
[6]
  ΦF (fluorescence quantum yield): 0.01
[7]
  Φ∆ (singlet oxygen generation quantum yield): 0.09
other
  melting point: > 300 °C

## CCN1C(=CC2=C(NC)C(=Cc3sc4cc(I)ccc4[n+]3CC)C2=O)Sc2cc(I)ccc21.[I-] [Dye 5b, 3-Ethyl-2-[3-(3-ethyl-6-iodo-3H-benzothiazol-2-ylidenemethyl)-2-(methylamino)-4-oxocyclobut-2-enylidenemethyl]-6-iodobenzothiazol-3-ium iodide]
[1]; Dark
  GI50: 1200 ± 100 nM
[1]; [9]
  GI50: 11 ± 10 nM
[2]; [10]
  GI50: 60 ± 1 nM
[2]; HepG2, Dark
  GI50: 15000 ± 2000 nM
[3]; [11]
  GI50: 10 ± 1 nM
[3]; MCF7, Dark
  GI50: 10000 ± 700 nM
[4]; [12]
  GI50: 180 ± 70 nM
[4]; NCI-H460, Dark
  GI50: 8100 ± 900 nM
[5]; Dark
  GI50: 5700 ± 600 nM
[5]; Irradiated 30 min
  GI50: 30 ± 1 nM
[6]
  ΦF (fluorescence quantum yield): 0.03
[7]
  Φ∆ (singlet oxygen generation quantum yield): 0.26
[8]
  GI50: 4 to 190 nM
  Difference between growth inhibition percentages upon illumination and in the dark: 43–73%
other
  melting point: > 300 °C

## CCN1C(=CC2=C(N)C(=Cc3sc4cc(I)ccc4[n+]3CC)C2=O)Sc2cc(I)ccc21.[I-] [Dye 5a, 2-[2-Amino-3-(3-ethyl-6-iodo-3H-benzothiazol-2-ylidenemethyl)-4-oxocyclobut-2-enylidenemethyl]-3-ethyl-6-iodobenzothiazol-3-ium iodide]
[1]; Dark
  GI50: 2540 ± 20 nM
[1]; [9]
  GI50: 4 ± 0.1 nM
[2]; [10]
  GI50: 80 ± 1 nM
[2]; HepG2, Dark
  GI50: 20000 ± 2000 nM
[3]; [11]
  GI50: 10 ± 1 nM
[3]; MCF7, Dark
  GI50: 15000 ± 1000 nM
[4]; [12]
  GI50: 190 ± 20 nM
[4]; NCI-H460, Dark
  GI50: 15300 ± 800 nM
[5]; Dark
  GI50: 17500 ± 100 nM
[5]; Irradiated 30 min
  GI50: 2000 ± 100 nM
[6]
  ΦF (fluorescence quantum yield): 0.02
[7]
  Φ∆ (singlet oxygen generation quantum yield): 0.22
[8]
  GI50: 4 to 190 nM
  Difference between growth inhibition percentages upon illumination and in the dark: 46–68%
other
  melting point: > 300 °C

## CCN1C(=CC2=C([O-])C(=Cc3sc4cc(I)ccc4[n+]3CC)C2=O)Sc2cc(I)ccc21 [Dye 3, 4-[(3-Ethyl-6-iodobenzothiazol-3-ium-2-yl)methylidene]-2-[(3-ethyl-6-iodo-3H-benzothiazol-2-ylidene)methyl]-3-oxocyclobut-1-en-1-olate]
[6]
  ΦF (fluorescence quantum yield): 0.03
[7]
  Φ∆ (singlet oxygen generation quantum yield): 0.05
other
  melting point: > 300 °C

## CCN1C(=CC2=C(N(C)CCO)C(=Cc3sc4cc(I)ccc4[n+]3CC)C2=O)Sc2cc(I)ccc21.[I-] [Dye 5e, 3-Ethyl-2-{3-(3-ethyl-6-iodo-3H-benzothiazol-2-ylidenemethyl)-2-[(2-hydroxy-ethyl)methylamino]-4-oxocyclobut-2-enylidenemethyl}-6-iodobenzothiazol-3-ium iodide]
[1]; Dark
  GI50: 2100 ± 200 nM
[1]; [9]
  GI50: 190 ± 20 nM
[2]; [10]
  GI50: 190 ± 10 nM
[2]; HepG2, Dark
  GI50: 11400 ± 900 nM
[3]; [11]
  GI50: 230 ± 20 nM
[3]; MCF7, Dark
  GI50: 9600 ± 200 nM
[4]; [12]
  GI50: 240 ± 30 nM
[4]; NCI-H460, Dark
  GI50: 13000 ± 1000 nM
[5]; Dark
  GI50: 11900 ± 200 nM
[5]; Irradiated 30 min
  GI50: 420 ± 10 nM
[6]
  ΦF (fluorescence quantum yield): 0.09
[7]
  Φ∆ (singlet oxygen generation quantum yield): 0.16
other
  melting point: > 300 °C
